Read-outs that look alike come from different tables or passages of the source.
Assays:
[1] = tested on: Panc1 pancreatic cancer cell line
Description: (§1) Mock-treated cells were cultured with the equivalent volume of PBS alone.
(§2) Total RNA was isolated from cultured cells using TRIZOL reagent (invitrogen, Carlsbad, Calif.) and purified using RNeasy Mini Kit (Qiagen, Valencia, Calif.). First- and second-stranded cDNA was synthesized from 10 μg of total RNA using 17-dT) primer (Genset Corp., La Jolla, Calif.) and Superscript Choice system (Invitrogen). Labeled cRNA was synthesized from the purified cDNA by in vitro transcription reaction using the BioArray High Yield RNA Transcript Labeling Kit (Enzo Diagnostics, Inc., Farmingdale, N.Y.) at 37° C. for 6 h. The cRNA was fragmented at 94° C. for 35 min. in a fragmentation buffer [40 mM Tris-acetate @ pH 8.1, 100 mM potassium acestate, and 30 mM magnesium acetate]. The fragmented cRNA was then hybridized to the Human Genome U133A chips (Affymetrix, Santa Clara, Calif.) with 18462 unique gene/EST transcripts at 45° C. for 16 h. The washing and staining procedure was performed in the Affymetrix Fluidics Station according to the manufacturer's instructions. The probes were then scanned using a laser scanner, and signal intensity for each transcript (background-subtracted and adjusted for noise) was calculated using Microarray Suite Software 5.0 (Affymetrix).
(§3) Fold change analysis of signal intensities obtained from oligonucleotide microarrays between the two treatment groups was performed using Data Mining software (Afrymetrix).
(§4) The global changes in gene expression proxies induced by 5Aza-dC in four pancreatic cancer cell lines (AsPCl, Hs766T, MiaPaCa2, and Panel) were determined using the Afrymetrix U133 oligonucleotide microarrays with 18462 probes sets (transcripts) covering over 13000 full-length sequences of known genes.

[2] = tested on: Hs766T pancreatic cancer cell line
Description: as §1, §2, §3, §4

With `Nc1ncn([C@H]2C[C@H](O)[C@@H](CO)O2)c(=O)n1` [5Aza-dC, 5 aza 2′ deoxycytidine] as the compound, how does the “Fold-change after 5Aza-dC treatment” value ([1]; MATN1, Panc1) read?
The value was 3.61 fold.

What about the “Fold-change after 5Aza-dC treatment” value ([1]; NEFH, Panc1) of the same compound?
The value was 4.59 fold.

What about the “Fold-change after 5Aza-dC treatment” value ([1]; NPTX2, Panc1) of the same compound?
The value was 18.94 fold.

What about the “Fold-change after 5Aza-dC treatment” value ([1]; PAX6, Panc1) of the same compound?
The value was 4.45 fold.

And the “Fold-change after 5Aza-dC treatment” value ([1]; PDYN, Panc1)?
Its value is 4.84 fold.

And the “Fold-change after 5Aza-dC treatment” value ([1]; PLAT, Panc1)?
The value was 2.13 fold.

And the “Fold-change after 5Aza-dC treatment” value ([1]; PLEK2, Panc1)?
The value was 1.08 fold.

What about the “transcripts with >5-fold increase, share of the 18462 transcripts analyzed” value ([1]; Panc1) of the same compound?
The value was 0.6%.

And the “transcripts with substantial increase (>5-fold) in signal intensities” value ([1]; Panc1, vs mock-treated)?
Its value is 116 transcripts.

What about the “Fold-change after 5Aza-dC treatment” value ([1]; SARP2, Panc1) of the same compound?
The value was −1.47 fold.

What about the “Fold-change after 5Aza-dC treatment” value ([1]; SMARCA1, Panc1) of the same compound?
The value was 1.01 fold.

What about the “Fold-change after 5Aza-dC treatment” value ([1]; ST14, Panc1) of the same compound?
Its value is 5.1 fold.

And the “Fold-change after 5Aza-dC treatment” value ([1]; TIMP3, Panc1)?
Its value is 1.1 fold.

What about the “Fold-change after 5Aza-dC treatment” value ([1]; TJP2, Panc1) of the same compound?
Its value is 1.49 fold.

And the “Fold-change after 5Aza-dC treatment” value ([1]; TNF, Panc1)?
Its value is 1.18 fold.

What about the “Fold-change after 5Aza-dC treatment” value ([1]; UCHL1, Panc1) of the same compound?
The value was 2.37 fold.

And the “Fold-change after 5Aza-dC treatment” value ([1]; WNT7A, Panc1)?
Its value is 3.57 fold.

And the “Fold-change after 5Aza-dC treatment” value ([1]; XAGE-1, Panc1)?
Its value is 24.78 fold.

And the “Fold-change after 5Aza-dC treatment” value ([1]; granulocytemacrophage colony-stimulating factor (M11734), Panc1)?
The value was 2.17 fold.

And the “Fold-change after 5Aza-dC treatment” value ([1]; interferon, alpha-inducible protein (NM_022873), Panc1)?
Its value is 1.2 fold.

And the “Fold-change after 5Aza-dC treatment” value ([1]; p53-induced protein (PIGII), Panc1)?
The value was 1.04 fold.

What about the “Fold-change after 5Aza-dC treatment” value ([1]; reprimo, Panc1) of the same compound?
Its value is 1.03 fold.

And the “Fold-change after 5Aza-dC treatment” value ([1]; stratifin (14-3-3 sigma), Panc1)?
The value was 1.21 fold.

And the “Fold-change after 5Aza-dC treatment” value ([1]; stromal antigen 3 (STAG5), Panc1)?
Its value is 6.84 fold.

And the “Fold-change after 5Aza-dC treatment” value ([1]; testin, Panc1)?
Its value is 1.57 fold.

What about the “Fold-change after 5Aza-dC treatment” value ([2]; ANGPT2, Hs766T) of the same compound?
The value was −0.44 fold.

And the “Fold-change after 5Aza-dC treatment” value ([2]; BARD1, Hs766T)?
Its value is 5.21 fold.

And the “Fold-change after 5Aza-dC treatment” value ([2]; BNIP3, Hs766T)?
The value was −1.75 fold.

What about the “Fold-change after 5Aza-dC treatment” value ([2]; BST2, Hs766T) of the same compound?
The value was 1.36 fold.

And the “Fold-change after 5Aza-dC treatment” value ([2]; CACNA1G, Hs766T)?
Its value is 0.5 fold.

And the “Fold-change after 5Aza-dC treatment” value ([2]; CCNE2, Hs766T)?
The value was 5.28 fold.

And the “Fold-change after 5Aza-dC treatment” value ([2]; CDH3, Hs766T)?
Its value is 0.89 fold.

What about the “Fold-change after 5Aza-dC treatment” value ([2]; CDKN1A (p21), Hs766T) of the same compound?
The value was 1.04 fold.

And the “Fold-change after 5Aza-dC treatment” value ([2]; CDKN1C, Hs766T)?
The value was 5.42 fold.

And the “Fold-change after 5Aza-dC treatment” value ([2]; CLDN5, Hs766T)?
Its value is 1.21 fold.

And the “Fold-change after 5Aza-dC treatment” value ([2]; CSF1, Hs766T)?
The value was 5.75 fold.

What about the “Fold-change after 5Aza-dC treatment” value ([2]; DR3, Hs766T) of the same compound?
The value was −1.46 fold.

What about the “Fold-change after 5Aza-dC treatment” value ([2]; FOXE1, Hs766T) of the same compound?
The value was 5.63 fold.

And the “Fold-change after 5Aza-dC treatment” value ([2]; GAGE1, Hs766T)?
Its value is 0.48 fold.

What about the “Fold-change after 5Aza-dC treatment” value ([2]; GAGE3, Hs766T) of the same compound?
The value was −2.57 fold.

What about the “Fold-change after 5Aza-dC treatment” value ([2]; GAGE4, Hs766T) of the same compound?
The value was −1.1 fold.

And the “Fold-change after 5Aza-dC treatment” value ([2]; GAGE6, Hs766T)?
Its value is 1.09 fold.

What about the “Fold-change after 5Aza-dC treatment” value ([2]; GAGE7, Hs766T) of the same compound?
Its value is −1.12 fold.

And the “Fold-change after 5Aza-dC treatment” value ([2]; HOXA1, Hs766T)?
The value was −1.61 fold.

What about the “transcripts with >5-fold increase, share of the 18462 transcripts analyzed” value ([2]; Hs766T) of the same compound?
The value was 0.9%.

And the “transcripts with substantial increase (>5-fold) in signal intensities” value ([2]; Hs766T, vs mock-treated)?
The value was 167 transcripts.

What about the “Fold-change after 5Aza-dC treatment” value ([2]; IGF2, Hs766T) of the same compound?
The value was −0.41 fold.

And the “Fold-change after 5Aza-dC treatment” value ([2]; IL1R1, Hs766T)?
Its value is −2.59 fold.

What about the “Fold-change after 5Aza-dC treatment” value ([2]; ISG20, Hs766T) of the same compound?
The value was 1.02 fold.

And the “Fold-change after 5Aza-dC treatment” value ([2]; JPH3, Hs766T)?
Its value is 5.27 fold.

What about the “Fold-change after 5Aza-dC treatment” value ([2]; KLK10, Hs766T) of the same compound?
The value was 1.16 fold.

What about the “Fold-change after 5Aza-dC treatment” value ([2]; LDOC1, Hs766T) of the same compound?
The value was −1.86 fold.

What about the “Fold-change after 5Aza-dC treatment” value ([2]; LHX1, Hs766T) of the same compound?
Its value is 1.92 fold.

What about the “Fold-change after 5Aza-dC treatment” value ([2]; MAGE1, Hs766T) of the same compound?
The value was 4.45 fold.

What about the “Fold-change after 5Aza-dC treatment” value ([2]; MATN1, Hs766T) of the same compound?
The value was 6.83 fold.

And the “Fold-change after 5Aza-dC treatment” value ([2]; NEFH, Hs766T)?
Its value is −1.24 fold.

What about the “Fold-change after 5Aza-dC treatment” value ([2]; NPTX2, Hs766T) of the same compound?
Its value is −2.6 fold.

What about the “Fold-change after 5Aza-dC treatment” value ([2]; PAX6, Hs766T) of the same compound?
The value was 1.36 fold.

What about the “Fold-change after 5Aza-dC treatment” value ([2]; PDYN, Hs766T) of the same compound?
Its value is 6.38 fold.

And the “Fold-change after 5Aza-dC treatment” value ([2]; PLAT, Hs766T)?
The value was −1.73 fold.

And the “Fold-change after 5Aza-dC treatment” value ([2]; PLEK2, Hs766T)?
Its value is 1.12 fold.

And the “Fold-change after 5Aza-dC treatment” value ([2]; SARP2, Hs766T)?
Its value is 1.35 fold.

What about the “Fold-change after 5Aza-dC treatment” value ([2]; SMARCA1, Hs766T) of the same compound?
The value was −0.79 fold.

And the “Fold-change after 5Aza-dC treatment” value ([2]; ST14, Hs766T)?
The value was −4.72 fold.

What about the “Fold-change after 5Aza-dC treatment” value ([2]; TIMP3, Hs766T) of the same compound?
The value was −3.67 fold.

What about the “Fold-change after 5Aza-dC treatment” value ([2]; TJP2, Hs766T) of the same compound?
Its value is −1.56 fold.

And the “Fold-change after 5Aza-dC treatment” value ([2]; TNF, Hs766T)?
The value was −4.9 fold.

What about the “Fold-change after 5Aza-dC treatment” value ([2]; UCHL1, Hs766T) of the same compound?
The value was 1.45 fold.

What about the “Fold-change after 5Aza-dC treatment” value ([2]; WNT7A, Hs766T) of the same compound?
The value was 9.03 fold.

What about the “Fold-change after 5Aza-dC treatment” value ([2]; XAGE-1, Hs766T) of the same compound?
The value was −0.5 fold.

And the “Fold-change after 5Aza-dC treatment” value ([2]; granulocytemacrophage colony-stimulating factor (M11734), Hs766T)?
Its value is 5.53 fold.

And the “Fold-change after 5Aza-dC treatment” value ([2]; interferon, alpha-inducible protein (NM_022873), Hs766T)?
Its value is −4.46 fold.

What about the “Fold-change after 5Aza-dC treatment” value ([2]; p53-induced protein (PIGII), Hs766T) of the same compound?
Its value is 1.04 fold.

And the “Fold-change after 5Aza-dC treatment” value ([2]; reprimo, Hs766T)?
Its value is 6.65 fold.

And the “Fold-change after 5Aza-dC treatment” value ([2]; stratifin (14-3-3 sigma), Hs766T)?
The value was −1.64 fold.

And the “Fold-change after 5Aza-dC treatment” value ([2]; stromal antigen 3 (STAG5), Hs766T)?
Its value is 1.01 fold.

And the “Fold-change after 5Aza-dC treatment” value ([2]; testin, Hs766T)?
The value was 1.6 fold.
